Assay results published in PubChem BioAssay (NCI).
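Interpolation was linear, between the two tested concentrations surrounding the appropriate level; five concentrations were tested over 48 hours in 96-well plates. At the GI50, growth is halved. At the TGI there is no net growth.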

Key:
Assay in all cases: NCI tumour cell line growth inhibition, 48 h
[1] = system: SNB-75 CNS
[2] = system: U251 CNS
[3] = system: MOLT-4 leukemia
[4] = system: OVCAR-8 ovarian
[5] = system: PC-3 prostate
[6] = system: HOP-62 NSCLC
[7] = system: RPMI-8226 leukemia
[8] = system: MDA-MB-231 breast
[9] = system: DU-145 prostate
[10] = system: NCI-H23 lung

SMILES	GI50 [1] [µM]	TGI [1] [µM]	GI50 [2] [µM]	TGI [2] [µM]	GI50 [3] [µM]	TGI [3] [µM]	GI50 [4] [µM]	TGI [4] [µM]	GI50 [5] [µM]	TGI [5] [µM]	GI50 [6] [µM]	TGI [6] [µM]	GI50 [7] [µM]	TGI [7] [µM]	GI50 [8] [µM]	TGI [8] [µM]	GI50 [9] [µM]	TGI [9] [µM]	GI50 [10] [µM]	TGI [10] [µM]
OC(CNC1CCCC1)Cn1c2ccccc2c2ccccc21 (configuration not stated)	12.9	26.5	21.5	56.6	> 100	> 100	27.6	> 100	> 100	> 100	18.9	42.6	> 100	> 100	27.7	> 100	82.3	> 100	28.4	83.7
C=C(C)[C@H](O)C(O)CC(C)[C@@H]1CCC23CC12CCC1[C@@]2(C)CCC(OC(C)=O)C(C)(C)C2CC(OC2OC(COC(C)=O)C(O)C(O)C2O)[C@]13C (some centres not stated)	–	9.03	–	10.1	–	8.94	–	12.8	–	–	–	13.2	–	6.29	–	–	–	–	–	14
Cc1cccc2c1C/C(=C1\CCc3c(C)cccc31)C2=O	–	> 100	–	> 100	–	> 100	–	> 100	–	–	–	> 100	–	–	–	–	–	–	–	> 100
COC1=CC(=O)[C@]2(C)[C@H](C1=O)C(C)[C@H]2c1ccccc1 (some centres not stated)	–	> 100	–	> 100	–	> 100	–	> 100	–	–	–	> 100	–	> 100	–	–	–	–	–	> 100
COc1cc([C@@H]2OC(=O)C3C2C(=O)O[C@H]3c2cc(OC)c(OC)c(OC)c2)cc(OC)c1OC (some centres not stated)	–	> 100	–	> 100	–	> 100	–	> 100	–	–	–	> 100	–	> 100	–	–	–	–	–	> 100
CN(C)CCNC(=O)c1cc2c3ccccc3[nH]c2c2ncccc12	5.44	21.4	12.2	37	3.46	16.5	6.11	40.9	9.14	34.2	11.1	37.5	6.01	22.7	5.25	26.8	11.5	30.7	11.6	32.6
CCOc1ccccc1NC(=O)C1=C(C)NC(C)=C(C(=O)Nc2ccccc2OCC)C1c1ccc(NC(C)=O)cc1	–	65.6	–	> 100	–	> 100	–	> 100	–	–	–	49	–	> 100	–	–	–	–	–	> 100
CCOC(=O)NC(=O)c1cn(CCN2CCN(C(=O)NCCCCCCNC(=O)N3CCN(CCn4cc(C(=O)NC(=O)OCC)c(=O)n(CCN(CC)CC)c4=O)CC3)CC2)c(=O)n(CCC(CC)CC)c1=O	–	> 100	–	> 100	–	–	–	> 100	–	–	–	> 100	–	> 100	–	–	–	–	–	> 100
COc1cc(-c2oc3c(OC)c(O)c(OC)c(O)c3c(=O)c2OC)ccc1O	–	–	–	> 100	–	> 100	–	> 100	–	> 100	–	61.4	–	> 100	–	> 100	–	> 100	–	> 100
C[CH2][Sn]([CH2]C)([O]C(=O)c1cccc(F)c1)[O][Sn]([CH2]C)([CH2]C)[O]C(=O)c1cccc(F)c1	16.9	31.9	16.9	30.6	31.9	> 100	17.5	32.3	–	–	37.3	> 100	–	–	–	–	–	–	16.6	30.8
c1ccc2c3c([nH]c2c1)C1(CCCCC1)c1c([nH]c2ccccc12)C31CCCCC1	–	36.5	–	97.6	–	> 100	–	50.4	–	–	–	54.8	–	> 100	–	–	–	–	–	> 100
N#C[S-].[Au+].c1ccc(CN2[CH-]N(Cc3ccccc3)C(c3ccccc3)=C2c2ccccc2)cc1	0.385	2.65	–	–	–	–	–	–	–	–	–	–	–	–	–	–	0.479	1.69	–	–
Cc1ccc(N2C(=O)/C(=C/c3ccc(N(CCC#N)CCC#N)cc3C)N=C2c2cc([N+](=O)[O-])ccc2Cl)cc1	–	> 100	–	> 100	–	> 100	–	> 100	–	–	–	> 100	–	> 100	–	–	–	–	–	> 100
CC1=Nn2c(nnc2-c2ccc(N)cc2)NC(C)(C)C1	–	–	–	> 100	–	> 100	–	–	–	–	–	> 100	–	> 100	–	–	–	–	–	> 100
CC(C)C[C@@H]1NC(=O)[C@@H]2CCCN2C(=O)[C@@H]2CCCN2C(=O)[C@H](CC(C)C)NC(=O)[C@H](CO)NC(=O)[C@H](CCCCN)NC(=O)[C@H]([C@H](C)O)NC(=O)[C@@H]2CCCC[C@@H](NC1=O)C(=O)N[C@@H](Cc1ccccc1)C(=O)N1CCC[C@H]1C(=O)N[C@@H](CC(=O)O)C(=O)NCC(=O)N[C@@H](CCCN=C(N)N)C(=O)N2	–	–	> 50	> 50	> 50	> 50	> 50	> 50	> 50	> 50	> 50	> 50	> 50	> 50	> 50	> 50	> 50	> 50	> 50	> 50
CC1(C)C2C/C(=C\c3ccccc3)C(=O)C1C2 (configuration not stated)	–	97.5	–	> 100	–	> 100	–	> 100	–	–	–	> 100	–	> 100	–	–	–	–	–	> 100
Cc1cc(=O)oc2cc(OCc3nc4ccccc4c(=O)[nH]3)ccc12	–	> 100	–	> 100	–	> 100	–	> 100	–	–	–	> 100	–	> 100	–	–	–	–	–	> 100
Cc1cccc2c1C(=O)OC2(C)c1cccc2ccccc12 (configuration not stated)	–	87.7	–	73.8	–	88.8	–	> 100	–	–	–	–	–	> 100	–	–	–	–	–	> 100
NC(CCSC(F)F)C(=O)O (configuration not stated)	–	> 100	–	> 100	–	> 100	–	> 100	–	–	–	> 100	–	–	–	–	–	–	–	> 100
CC12CC3CC(C1)CC(N=[N+]=[N-])(C3)C2	–	> 100	–	> 100	–	> 100	–	> 100	–	–	–	> 100	–	> 100	–	–	–	–	–	> 100
Cc1ccc(/C=C2\CCCC\C2=N\O)cc1	–	81.3	–	> 100	–	–	–	> 100	–	–	–	> 100	–	–	–	–	–	–	–	> 100
C[C@@H]1C[C@@]2(O[C@@H]2C)C(=O)O[C@@H]2CCN3CC=C(COC(=O)[C@]1(C)O)[C@H]23	–	> 100	–	> 100	–	> 100	–	> 100	–	> 100	–	–	–	> 100	–	> 100	–	> 100	–	> 100

SMILES	GI50 [1] [µM]	TGI [1] [µM]	GI50 [2] [µM]	TGI [2] [µM]	GI50 [3] [µM]	TGI [3] [µM]	GI50 [4] [µM]	TGI [4] [µM]	GI50 [5] [µM]	TGI [5] [µM]	GI50 [6] [µM]	TGI [6] [µM]	GI50 [7] [µM]	TGI [7] [µM]	GI50 [8] [µM]	TGI [8] [µM]	GI50 [9] [µM]	TGI [9] [µM]	GI50 [10] [µM]	TGI [10] [µM]
O=C(/C=C1/NC(=O)CS1)Nc1ccccc1	–	> 100	–	> 100	–	> 100	–	> 100	–	–	–	> 100	–	> 100	–	–	–	–	–	> 100
CSC1C(=O)c2ccccc2/C(=N/Nc2nc3ccccc3s2)C1C (configuration not stated)	–	–	7.66	15.6	–	–	10.7	28.6	9.28	27.2	14.4	> 50	7.44	> 50	7.79	15.8	9.59	18.3	11.2	28.3
COc1cc([N+](=O)[O-])c(OC)cc1-c1nc2sc(Cl)cn2c1/C=N/NC(=N)N/N=C/c1c(-c2cc(OC)c([N+](=O)[O-])cc2OC)nc2sc(Cl)cn12	–	–	–	–	–	–	–	–	1.97	3.47	–	–	–	–	1.59	3.4	1.91	4.06	–	–
CC(=O)c1c[nH]cc1CO	–	> 10	–	> 10	–	> 10	–	> 10	–	> 10	–	> 10	–	> 10	–	–	–	–	–	> 10
c1ccc(SC(CCCCOC2CCCCO2)Sc2ccccc2)cc1 (configuration not stated)	–	> 100	–	> 100	–	> 100	–	> 100	–	–	–	> 100	–	> 100	–	–	–	–	–	> 100
C/C(=N\O)C(CN1CCCCC1)C(c1ccccc1)c1c(O)c2ccccc2oc1=O (configuration not stated)	–	> 100	–	–	–	–	–	> 100	–	–	–	> 100	–	> 100	–	–	–	–	–	> 100
[C-]#[N+]C(C)(C)C[C@H]1CC(C)C2CCC(C)C3([N+]#[C-])CCC(=C)C1[C@H]23 (some centres not stated)	–	49.7	–	11.8	–	5.25	–	9.22	–	–	–	19.3	–	–	–	–	–	–	–	19.6
O=C(N/C(=C\c1ccc(Oc2ccc(Cl)c(Cl)c2)cc1)c1nc2ccccc2[nH]1)c1ccccc1	–	–	–	27.4	–	93.4	–	28.6	–	–	–	–	–	–	–	–	–	–	–	27.7
CS/C(c1ccccc1)=[N+](/C)[O-]	–	> 100	–	> 100	–	> 100	–	> 100	–	–	–	> 100	–	> 87.1	–	–	–	–	–	> 100
S=C(Nc1ccccc1)N(Cc1ccccc1)c1ccccc1	–	> 100	–	> 100	–	> 100	–	–	–	–	–	> 100	–	> 100	–	> 100	–	24.7	–	> 100
CC(C)CCc1c(Cl)nc(Cl)nc1Cl	–	22.3	–	24.4	–	> 100	–	–	–	> 100	–	30.4	–	> 100	–	–	–	31.1	–	–
COc1ccccc1/C=N/N=C(\N)NO	–	–	–	> 100	–	> 100	–	–	–	–	–	76.6	–	> 100	–	–	–	–	–	> 100
COc1cc2cccc(NC(=O)c3cc(OC)c(OC)c(OC)c3Br)c2cc1OC	–	74.8	–	78.9	–	8.81	–	85.4	–	–	–	42.3	–	17	–	–	–	–	–	34.4
C=CCN=C1NC(=O)C(CC(=O)Nc2ccc(C)cc2)S1 (configuration not stated)	–	> 100	–	> 100	–	> 100	–	> 100	–	–	–	> 100	–	> 100	–	–	–	–	–	> 100
O=C1/C(=C/c2ccc(Cl)cc2)COc2ccc(O)c(O)c21	1.34	3.65	0.731	2.06	0.618	> 100	1.11	12.8	0.501	3.48	–	–	0.2	0.512	1.11	3.25	1.44	3.13	1.71	4.09
COc1cc(C(=O)CC2(O)C(=O)Nc3c(Cl)cc(Cl)cc32)ccc1O (configuration not stated)	–	93	–	> 100	–	> 100	–	> 100	–	–	–	> 100	–	> 100	–	–	–	–	–	> 100
COc1cc(/C=C2/C(=O)NC(Cc3cc(OC)c(OC)c(C)c3OC)C(=O)N2Cc2ccccc2)c(OC)c(C)c1OC (configuration not stated)	–	> 100	–	> 100	–	70.5	–	> 100	–	–	–	> 100	–	91.4	–	–	–	–	–	> 100
COc1ccc2c(c1)CC1c3c(cc4c(c3-2)OCO4)CCN1C (configuration not stated)	–	56.9	–	> 100	–	64.9	–	70.4	–	–	–	96.7	–	64.2	–	–	–	–	–	73.9
Cc1ccc(C2=C(c3ccccc3)C(Br)(c3ccccc3)C(c3ccccc3)=C2c2ccc(C)cc2)cc1	–	> 100	–	> 100	–	> 100	–	> 100	–	–	–	> 100	–	> 100	–	–	–	–	–	> 100
C=C1C(=O)O[C@H]2[C@H]1CC/C(CNS(=O)(=O)c1cccc3ccccc13)=C\CC[C@@]1(C)O[C@@H]21	–	–	3.67	15.3	1.87	5.27	2.52	9.16	1.91	4.51	13.4	27.9	1.58	4.43	1.53	3.4	1.11	2.43	2.48	9.12
O=C1C[C@H]2CC3(CC[C@H]2CN1)OCCO3	–	> 100	–	> 100	–	> 100	–	> 100	–	–	–	> 100	–	> 100	–	–	–	–	–	> 100
C/C(=C\CC[C@]1(C)OC(C)(C)OC1CC/C(C)=C/CO[Si](c1ccccc1)(c1ccccc1)C(C)(C)C)CC/C=C/CO[Si](C)(C)C(C)(C)C (some centres not stated)	–	> 100	–	> 100	–	> 100	–	> 100	–	–	–	> 100	–	> 100	–	–	–	–	–	> 100
